In patent US7659333B2, “Fluorinated surfactants for use in making a fluoropolymer” (3M Innovative Properties Company, priority 2005, dated 2010):

Test: Determination of bio-accumulation: urinary clearance pharmacokinetic study in rats
Format: in vivo, male Sprague Dawley rats
Description: The goal was to measure the total amount of parent compound eliminated via urinary output and estimate the rate of elimination.
The study utilized male Sprague Dawley rats, 6 to 8 weeks of age, and approximately 200 to 250 g body weight at study onset. The test compounds of table 2 were administered at a dose of 73 micro Moles per kg body weight in rats (N=3 animals per tested compound). All test compounds were prepared in sterile deionized water and given to rats via oral gavage. After test compounds administration, the rats were housed individually in metabolism cages for urine collection: 0 to 6 hours, 6 to 24 hours, 24 to 48 hours and 72 to 96 hours. Animals were observed throughout the study for clinical signs of toxicity. Gross necropsy was performed at the termination of each study (96 hours post-dose) with sera and liver samples being retained from each animal.
The concentration of the parent compound or metabolites thereof were quantitatively measured via fluorine NMR on each urine sample for each animal at each time point based on internally added standards.
T ½ and % recovery are based on elimination of the major metabolite—C3F7—O—CHFCOO^−. T1/2 is the renal half-life and is the time required for the amount of a particular substance in a biological system to be reduced to one half of its value by biological processes when the rate of removal is approximately exponential. In these examples the value of T1/2 is calculated by exponential least squares curve fitting (y=Ae^Bx and T1/2=0.693/B) where y represents the concentration of analyte in urine and x represents time in hours.

Compound	% Recovery (96 h) (male Sprague Dawley rats, 73 micro Moles per kg oral gavage, recovery in urine after 96 h, values marked * based on major metabolite C3F7—O—CHFCOO−) [%]	Compound-related Effects (male Sprague Dawley rats, 73 micro Moles per kg oral gavage, clinical signs observed, gross necropsy at 96 hours post-dose)	half-life (rat, in vivo, 73 micro Moles per kg body weight, male Sprague Dawley rats, 73 micro Moles per kg oral gavage, urine 0-96 h by fluorine NMR, exponential least squares fit, values marked * based on elimination of major metabolite C3F7—O—CHFCOO−, read-out: T ½ (h) (renal half-life))	parent compound in the urine (rat, in vivo, po)
N.O=C(O)C(F)(F)C(F)(F)C(F)(F)C(F)(F)C(F)(F)C(F)(F)C(F)(F)F [APFO, ammonium perfluorooctanoic acid]	6	Hepatomegaly	~550	–
C3F7—O—C2HF3—O—CH2—COO^−NH4 [Example 2]	–	–	–	No parent compound observed in the urine
